According to PubChem BioAssay (NCI):
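Interpolation was linear, between the two tested concentrations surrounding the appropriate level; five concentrations were tested over 48 hours in 96-well plates. GI50 marks 50% less growth. The concentration for full growth arrest is given as TGI.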

Tests used:
Test in all cases: NCI tumour cell line growth inhibition, 48 h
786-0 renal = system: 786-0 renal
HCT-15 colon = system: HCT-15 colon
LOX IMVI melanoma = system: LOX IMVI melanoma
SF-539 CNS = system: SF-539 CNS
SK-MEL-2 melanoma = system: SK-MEL-2 melanoma
SK-MEL-28 melanoma = system: SK-MEL-28 melanoma
SW-620 colon = system: SW-620 colon
TK-10 renal = system: TK-10 renal
U251 CNS = system: U251 CNS
NCI-H226 lung = system: NCI-H226 lung

Row | Compound | GI50 (786-0 renal) | TGI (786-0 renal) | GI50 (HCT-15 colon) | TGI (HCT-15 colon) | GI50 (LOX IMVI melanoma) | TGI (LOX IMVI melanoma) | GI50 (SF-539 CNS) | TGI (SF-539 CNS) | GI50 (SK-MEL-2 melanoma) | TGI (SK-MEL-2 melanoma) | GI50 (SK-MEL-28 melanoma) | TGI (SK-MEL-28 melanoma) | GI50 (SW-620 colon) | TGI (SW-620 colon) | GI50 (TK-10 renal) | TGI (TK-10 renal) | GI50 (U251 CNS) | TGI (U251 CNS) | GI50 (NCI-H226 lung) | TGI (NCI-H226 lung)
1 | O=C([CH-]C(=O)c1ccccc1)c1ccccc1.O=C([CH-]C(=O)c1ccccc1)c1ccccc1.O=C([CH-]C(=O)c1ccccc1)c1ccccc1.[Nd+3].[OH3+] | 5.06 µM | 18.5 µM | 8.7 µM | 53.6 µM | 11.5 µM | 29.4 µM | 13.7 µM | 45.9 µM | 3.97 µM | 15.6 µM | 7.74 µM | 30.4 µM | 4.1 µM | 26.4 µM | 8.51 µM | 74.7 µM | 9.22 µM | > 100 µM | – | –
2 | CCN(CC)CCNc1ccc([N+](=O)[O-])c2sc3ccccc3c(=O)c12 | 0.958 µM | 2.35 µM | 1.7 µM | 7.59 µM | 0.421 µM | 1.79 µM | 3.09 µM | 10.8 µM | 1.21 µM | 5.53 µM | 1.77 µM | 3.3 µM | 0.478 µM | 1.93 µM | 0.624 µM | 2.24 µM | 0.607 µM | 2.01 µM | 2.06 µM | 6.6 µM
3 | FC(F)(F)c1cc(-c2nnc3n2N=C(N2CCCC2)CS3)cc(C(F)(F)F)c1 | 20.3 µM | > 50 µM | > 50 µM | > 50 µM | > 50 µM | > 50 µM | 34 µM | > 50 µM | > 50 µM | > 50 µM | > 50 µM | > 50 µM | > 50 µM | > 50 µM | – | – | 18.1 µM | > 50 µM | 24.6 µM | > 50 µM
4 | O=C(/C=C/c1ccccc1)CC1OC(=O)c2ccccc21 (stereo unspecified) | – | > 100 µM | – | > 100 µM | – | > 100 µM | – | > 100 µM | – | > 100 µM | – | > 100 µM | – | > 100 µM | – | > 100 µM | – | > 100 µM | – | 83.1 µM
5 | CSC(CC(=O)O)C(=O)O (stereo unspecified) | – | > 100 µM | – | > 100 µM | – | > 100 µM | – | > 100 µM | – | > 100 µM | – | > 100 µM | – | > 100 µM | – | > 100 µM | – | > 100 µM | – | > 100 µM
6 | COC1=CC(=O)C2C(C1=O)[C@@H]1c3ccccc3C[C@H]21 (stereo partly specified) | – | > 100 µM | – | > 100 µM | – | > 100 µM | – | > 100 µM | – | > 100 µM | – | > 100 µM | – | > 100 µM | – | > 100 µM | – | > 100 µM | – | –
7 | CC1CC2CC(=O)CC3(C1)C2CCCN3CCCO (stereo unspecified) | – | > 100 µM | – | – | – | > 100 µM | – | > 100 µM | – | > 100 µM | – | > 100 µM | – | > 100 µM | – | > 100 µM | – | > 100 µM | – | > 100 µM
8 | C=CC1[C@H]2COC(C)(C)O[C@@H]2CC(=O)C1(C)C (stereo partly specified) | – | > 100 µM | – | – | – | > 100 µM | – | > 100 µM | – | > 100 µM | – | > 100 µM | – | > 100 µM | – | > 100 µM | – | > 100 µM | – | > 100 µM
9 | CC(C)C1(O)C(c2ccccc2)=C(c2ccccc2)C(c2ccccc2)=C1c1ccccc1 | – | 74.4 µM | – | 46.8 µM | – | 20 µM | – | 28.6 µM | – | 18.9 µM | – | – | – | > 100 µM | – | 56.3 µM | – | 18.7 µM | – | 31.6 µM
10 | CN(C)c1ccc([O-])cc1.CN(C)c1ccc([O-])cc1.CN(C)c1ccc([O-])cc1.CN(C)c1ccc([O-])cc1.[Ti+4] | > 100 µM | > 100 µM | > 100 µM | > 100 µM | 76.9 µM | > 100 µM | > 100 µM | > 100 µM | > 100 µM | > 100 µM | > 100 µM | > 100 µM | 69.9 µM | > 100 µM | > 100 µM | > 100 µM | – | – | > 100 µM | > 100 µM
11 | O=C(Nc1cccc([N+](=O)[O-])c1)C(=O)C(C(=O)c1ccccc1-c1ccccc1)C1OC(=O)c2ccccc21 (stereo unspecified) | – | 38.9 µM | – | – | – | 36.6 µM | – | 28.4 µM | – | 38.3 µM | – | 67.6 µM | – | 73.6 µM | – | 61.5 µM | – | 27.7 µM | – | 25.9 µM
12 | COc1ccc(NC(=O)C(=O)Cc2nc3ccc([N+](=O)[O-])cc3[nH]c2=O)c(OC)c1 | – | > 100 µM | – | > 100 µM | – | > 100 µM | – | > 100 µM | – | > 100 µM | – | > 100 µM | – | > 100 µM | – | > 100 µM | – | – | – | > 100 µM
13 | NC1CCCCC1.[O]=[Ge].[O]=[Ge].[O]=[Ge][OH].[O]=[Ge][OH] | > 100 µM | > 100 µM | – | > 100 µM | – | > 100 µM | – | > 100 µM | – | > 100 µM | – | > 100 µM | – | > 100 µM | > 100 µM | > 100 µM | – | – | > 100 µM | > 100 µM
14 | COc1cc(/C=C\c2ccc(C)cc2)cc(OC)c1OC | – | 25.2 µM | – | – | – | 38.7 µM | – | 0.0218 µM | 0.0044 µM | 36.5 µM | – | – | – | > 100 µM | 25.7 µM | > 100 µM | – | 0.348 µM | < 0.0134 µM | 0.987 µM
15 | OC1c2ccccc2C2(O)C1C(c1ccccc1)C(c1ccccc1)C2(O)c1ccccc1 (stereo unspecified) | – | 31.1 µM | – | 22.2 µM | – | 21.1 µM | – | 26 µM | – | 23.3 µM | – | 25.7 µM | – | 52 µM | – | 85.4 µM | – | 23.1 µM | – | –
16 | CCOC(=O)C1(Br)C(c2ccccc2)NC(=O)NC1(C)Br (stereo unspecified) | – | > 100 µM | – | > 100 µM | – | > 58.4 µM | > 100 µM | > 100 µM | – | > 100 µM | – | > 100 µM | – | – | – | > 100 µM | – | 49.4 µM | – | > 100 µM
17 | O=C(O)COc1ccc(O)c2c1C(=O)CCCC2=O | – | > 100 µM | – | > 100 µM | – | > 100 µM | – | > 100 µM | – | > 100 µM | – | > 100 µM | – | > 100 µM | – | > 100 µM | – | > 100 µM | – | –
18 | CCCCCCCNc1nc(C(=O)OCC)ncc1-c1ccc(C(F)(F)F)cc1 | 39.3 µM | > 100 µM | 33.2 µM | > 100 µM | 40.9 µM | > 100 µM | – | – | 26.6 µM | 66.7 µM | 66.2 µM | > 100 µM | 41.5 µM | > 100 µM | 51.2 µM | > 100 µM | 34.1 µM | > 100 µM | 30.5 µM | > 100 µM
19 | CCCn1c(SC)nc(COC(=O)NC)c1COC(=O)NC | – | > 100 µM | – | > 100 µM | – | > 100 µM | – | > 100 µM | – | > 100 µM | – | > 100 µM | – | > 100 µM | – | > 100 µM | – | – | – | > 100 µM
